Like-named read-outs stand apart in the source and are kept apart here.
Legend:
[1] = test system: influenza A or B virus infection; format: in vivo, human; conditions: adult patients
[2] = test system: influenza A or B virus infection; assay: Test of comparison with oseltamivir phosphate for child patients; format: in vivo, human
[3] = test system: influenza A or B virus infection; format: in vivo, human
[4] = format: in vivo, human
Protocol: The medicinal component was administered in a single inhaled dose of 5 mg, 10 mg, 20 mg, or 40 mg to healthy adult male subjects, and the pharmacokinetics of the medicinal component and the compound (III), which is an active metabolite of the medicinal component, were evaluated.
(§1) The administration was performed using the composition prepared according to Example 41.

clinical = format: in vivo, human; conditions: for fe0-144 h [%]: cumulative urinary recovery until 144 hours; for fe0-144 h [%] / Cmax / half-life / AUC(0-inf): geometric mean; for Tmax / Cmax / half-life / AUC(0-inf): male, human, in vivo; for Tmax: inhaled or intranasal, single inhaled dose of medicinal component, plasma, median; for AUC(0-inf): read-out: AUC0-inf [ng/mL]
Protocol: The medicinal component was administered in a single inhaled dose of 80 mg or 120 mg to healthy adult male subjects, and the pharmacokinetics of the medicinal component were evaluated. In addition, the pharmacokinetics of the Compound (III), an active metabolite of the medicinal component, were also determined.
as §1

SMILES	upper limit of the 95% confidence interval for the difference between the median values ([1]; every dose group (20 mg, 40 mg), non-inferiority margin 18 hours)	duration of the illness compared with the oseltamivir phosphate group ([2]; child patients, each of the 20 mg group and the 40 mg group)	Difference (95% confidence interval, hours) in median value from the oseltamivir phosphate group ([3]; human, in vivo)	duration of influenza illness compared with the oseltamivir phosphate group ([3]; human, in vivo)	time after administration at which plasma concentration was less than the quantification lower limit ([4]; each dose group (5, 10, 20, 40 mg), single inhaled dose) [h]	dose proportionality of pharmacokinetic parameters (Cmax, AUC0-tz, AUC0-inf, Ae0-144h of medicinal component; Cmax, Ae0-144h of compound (III)) ([4]; single inhaled dose 5, 10, 20 or 40 mg)	time after administration at which almost not detected in urine ([4]; urinary excretion, single inhaled dose 5 to 40 mg) [h]	fe0-144 h [%] (clinical; 80 mg group)	fe0-144 h [%] (clinical; 120 mg group)	Tmax (clinical; 80 mg group) [h]	Tmax (clinical; 120 mg group) [h]	Cmax (clinical; 80 mg group) [ng/mL]	half-life (clinical; 80 mg group) [h]	AUC(0-inf) (clinical; 80 mg group) [ng·h/mL]	Cmax (clinical; 120 mg group) [ng/mL]	half-life (clinical; 120 mg group) [h]	AUC(0-inf) (clinical; 120 mg group) [ng·h/mL]	Median value (hours) of the duration of influenza illness ([1]; 75 mg twice daily for 5 days) [h]	Median value (hours) of the duration of influenza illness ([2]; child patients (9 or less years old), 2 mg/kg twice daily for 5 days) [h]	Median value (hours) of the duration of influenza illness ([3]; 75 mg twice daily for 5 days) [h]
CCCCCCCC(=O)OC[C@@H](O)[C@@H](OC)[C@@H]1OC(C(=O)O)=C[C@H](NC(=N)N)[C@H]1NC(C)=O [Medicinal component, (2R,3R,4S)-3-acetamido-4-guanidino-2-[(1R,2R)-2-hydroxy-1-methoxy-3-(octanoyloxy)propyl]-3,4-dihydro-2H-pyran-6-carboxylic acid]	less than 18 hours	shorter	−1.4(−27.6 to 7.3) hours	almost equal	≥ 24	Dose proportionality was observed	≥ 24	3.5	2.7	0.5	0.5	335	5.66	1270	412	2.87	1560			
CCOC(=O)C1=C[C@@H](OC(CC)CC)[C@H](NC(C)=O)[C@@H](N)C1 [Oseltamivir phosphate, oseltamivir phosphate, reference compound]																		73.6	87.3	87.4

From patent US9339487B2, “Dry powder pharmaceutical composition for inhalation” (priority 2008, dated 2016)
